Experiments:
C57BL/6J ob/ob mice = assay: Glucose lowering activity of halofenate analogs in ob/ob mice (Example 12); type: in vivo; conditions: for Predose Glucose: baseline before dosing
[1] = Plasma hydrolysis of (−) CPTA prodrug esters in human plasma (Example 21); type: in vitro ADME; conditions: human plasma (heparinized, pooled), 125 or 250 μM, 37° C., hydrolysis to (−) CPTA; read-out: Plasma T1/2 (converted)
Procedure: This example illustrates the plasma hydrolysis of various prodrug esters of the (S)-enantiomer of CPTA at physiological conditions. Hydrolysis was monitored and analyzed by HPLC. The hydrolytic product was identified by comparison to authentic (−) CPTA and the hydrolytic rates were calculated. [drawing 83]
Human plasma (heparinized, pooled) was obtained from Golden West Biololgicals Inc., USA; Plasma incubation was carried out in a Water Bath Shaker (New Brunswick Scientific, Inc.); Sample analyses were carried out on Agilent HPLC 1100 system.
Prepare 31.25 or 62.5 mM prodrug stock solutions in 100% DMSO. Add 4 μL of 31.25 or 62.5 mM prodrug stock solutions to 1.0 mL of plasma in a microcentrifuge tube to make plasma concentration at 125 or 250 μM, mix gently. Aliquots of 50 μL are transferred to 15 microcentrifuge vials. Three samples are immediately removed to a freezer at about −80° C. (0 time point), the remaining samples are incubated in a bath shaker at 37° C. Three samples are removed at 30 min, 2, 7 and 24 hr, and stored at −80° C. until analysis. The relative concentrations of MBX-compounds are determined by HPLC methods. If there are enough data points, the hydrolytic rate can be calculated using WinNonlin software. Table 10 provides a summary of plasma half-lives of some pro-drug esters and FIGS. 20A-20G illustrate the hydrolytic curves of those prodrug esters.

## O=C(NCCOC(=O)C(Oc1cccc(C(F)(F)F)c1)c1ccc(Cl)cc1)c1ccccc1 (racemic) [(±)Analog 36]
C57BL/6J ob/ob mice; 125 mg/kg oral once a day
  6 hours Glucose: 300.5 ± 27.3 mg/dL
  30 hours Glucose: 249.7 ± 8.6 mg/dL
  54 hours Glucose: 272.2 ± 18.4 mg/dL
C57BL/6J ob/ob mice; 125 mg/kg group
  Predose Glucose: 329.7 ± 17.6 mg/dL

## CS(=O)(=O)NCCOC(=O)C(Oc1cccc(C(F)(F)F)c1)c1ccc(Cl)cc1 (single isomer, unassigned) [Compound 19.10]
[1]
  half-life: < 60 min

## NCC(=O)OCCOC(=O)C(Oc1cccc(C(F)(F)F)c1)c1ccc(Cl)cc1 (single isomer, unassigned) [Compound 19.28]
[1]
  half-life: < 30 min

## O=C(OCC(=O)N1CCOCC1)C(Oc1cccc(C(F)(F)F)c1)c1ccc(Cl)cc1 (single isomer, unassigned) [Compound 19.5]
[1]
  half-life: < 30 min

## CC(=O)OCCOC(=O)C(Oc1cccc(C(F)(F)F)c1)c1ccc(Cl)cc1 (single isomer, unassigned) [Compound 19.23]
[1]
  half-life: < 60 min

## CN(C)C(=O)COC(=O)C(Oc1cccc(C(F)(F)F)c1)c1ccc(Cl)cc1 (single isomer, unassigned; (-)) [(−)Analog 38]
C57BL/6J ob/ob mice; 150 mg/kg group
  Predose Glucose: 373.4 ± 16.1 mg/dL
C57BL/6J ob/ob mice; single oral dose 150 mg/kg
  6 hours Glucose: 251.2 ± 23.6 mg/dL
  time points with significantly reduced plasma glucose: 6 h

## CN(C)C(=O)COC(=O)C(Oc1cccc(C(F)(F)F)c1)c1ccc(Cl)cc1 (single isomer, unassigned) [Compound 19.11]
[1]
  half-life: < 30 min

## O=C(NCCOC(=O)C(Oc1cccc(C(F)(F)F)c1)c1ccc(Cl)cc1)c1cccs1 (single isomer, unassigned) [Compound 19.2]
[1]
  half-life: < 60 min

## O=C(NCCOC(=O)C(Oc1cccc(C(F)(F)F)c1)c1ccc(Cl)cc1)c1ccccc1 (single isomer, unassigned) [Compound 19.4]
[1]
  half-life: < 60 min

## O=C(OCc1cccnc1)C(Oc1cccc(C(F)(F)F)c1)c1ccc(Cl)cc1 (single isomer, unassigned) [Compound 19.18]
[1]
  half-life: < 60 min

## COCC(=O)NCCOC(=O)C(Oc1cccc(C(F)(F)F)c1)c1ccc(Cl)cc1 (single isomer, unassigned) [Compound 19.17]
[1]
  half-life: < 60 min

## NC(=O)C1CCCN1C(=O)COC(=O)C(Oc1cccc(C(F)(F)F)c1)c1ccc(Cl)cc1 (single isomer, unassigned) [Compound 19.16]
[1]
  half-life: < 30 min

## CC(C)C(=O)NCCOC(=O)C(Oc1cccc(C(F)(F)F)c1)c1ccc(Cl)cc1 (single isomer, unassigned) [Compound 19.15]
[1]
  half-life: < 60 min

## CC(=O)NCCOC(=O)C(Oc1cccc(C(F)(F)F)c1)c1ccc(Br)cc1 (racemic) [(±)Analog 29]
C57BL/6J ob/ob mice; 125 mg/kg oral once a day
  6 hours Glucose: 299.7 ± 24.5 mg/dL
  30 hours Glucose: 237.4 ± 14.9 mg/dL
  54 hours Glucose: 293.3 ± 9.7 mg/dL
C57BL/6J ob/ob mice; 125 mg/kg group
  Predose Glucose: 387.1 ± 16.0 mg/dL

## CCOC(=O)NCCOC(=O)C(Oc1cccc(C(F)(F)F)c1)c1ccc(Cl)cc1 (single isomer, unassigned; (-)) [Compound 19.9, (−)-2-ethoxycarbonylaminoethyl 4-chloro-alpha-(3-trifluoromethylphenoxy)benzeneacetate]
[1]
  half-life: < 60 min

## O=C(NCCOC(=O)C(Oc1cccc(C(F)(F)F)c1)c1ccc(Cl)cc1)OCc1ccccc1 (single isomer, unassigned) [Compound 19.21]
[1]
  half-life: < 120 min

## O=C(OCc1ccccc1)C(Oc1cccc(C(F)(F)F)c1)c1ccc(Cl)cc1 (single isomer, unassigned; (-)) [Compound 19.6, (−)-benzyl 4-chloro-alpha-(3-trifluoromethylphenoxy)benzeneacetate]
[1]
  half-life: 378 min

## C#CCOC(=O)C(Oc1cccc(C(F)(F)F)c1)c1ccc(Cl)cc1 (single isomer, unassigned; (-)) [Compound 19.3, (−)-propargyl 4-chloro-alpha-(3-trifluoromethylphenoxy)benzeneacetate]
[1]
  half-life: < 60 min

## CC(OC(=O)OC1CCCCC1)OC(=O)C(Oc1cccc(C(F)(F)F)c1)c1ccc(Cl)cc1 (single isomer, unassigned; (-)) [Compound 19.27, (−)-1-(cyclohexyloxycarbonyloxy)ethyl 4-chloro-alpha-(3-trifluoromethylphenoxy)benzeneacetate]
[1]
  half-life: < 60 min

## O=C(NCCOC(=O)C(Oc1cccc(C(F)(F)F)c1)c1ccc(Cl)cc1)c1ccccc1 (single isomer, unassigned; (-)) [(−)Analog 36]
C57BL/6J ob/ob mice; 150 mg/kg group
  Predose Glucose: 373.2 ± 15.5 mg/dL
C57BL/6J ob/ob mice; single oral dose 150 mg/kg
  6 hours Glucose: 281.1 ± 18.2 mg/dL
  time points with significantly reduced plasma glucose: 6 h

## NC(=O)COC(=O)C(Oc1cccc(C(F)(F)F)c1)c1ccc(Cl)cc1 (single isomer, unassigned; (-)) [(−)Analog 37]
C57BL/6J ob/ob mice; 150 mg/kg group
  Predose Glucose: 373.4 ± 16.1 mg/dL
C57BL/6J ob/ob mice; single oral dose 150 mg/kg
  6 hours Glucose: 271.7 ± 22.5 mg/dL
  time points with significantly reduced plasma glucose: 6 h

## CCCCOC(=O)C(Oc1cccc(C(F)(F)F)c1)c1ccc(Cl)cc1 (racemic) [(±)Analog 33]
C57BL/6J ob/ob mice; 125 mg/kg oral once a day
  6 hours Glucose: 227.5 ± 13.2 mg/dL
  30 hours Glucose: 298.0 ± 15.3 mg/dL
  54 hours Glucose: 286.6 ± 9.9 mg/dL
C57BL/6J ob/ob mice; 125 mg/kg group
  Predose Glucose: 292.0 ± 19.1 mg/dL

## Cc1oc(=O)oc1COC(=O)C(Oc1cccc(C(F)(F)F)c1)c1ccc(Cl)cc1 (single isomer, unassigned) [Compound 19.24]
[1]
  half-life: < 30 min

## O=C(OCCO)C(Oc1cccc(C(F)(F)F)c1)c1ccc(Cl)cc1 (single isomer, unassigned) [Compound 19.14]
[1]
  half-life: < 120 min

## CC(=O)NCCOC(=O)C(Oc1cccc(C(F)(F)F)c1)c1ccc(Br)cc1 (single isomer, unassigned; (-)) [(−)Analog 29]
C57BL/6J ob/ob mice; 150 mg/kg group
  Predose Glucose: 372.2 ± 17.1 mg/dL
C57BL/6J ob/ob mice; single oral dose 150 mg/kg
  6 hours Glucose: 333.5 ± 16.1 mg/dL
  time points with significantly reduced plasma glucose: 6 h

## CCOC(=O)COC(=O)C(Oc1cccc(C(F)(F)F)c1)c1ccc(Cl)cc1 (single isomer, unassigned) [Compound 19.12]
[1]
  half-life: < 30 min

## NC(=O)COC(=O)C(Oc1cccc(C(F)(F)F)c1)c1ccc(Cl)cc1 (racemic) [(±)Analog 37]
C57BL/6J ob/ob mice; 125 mg/kg oral once a day
  6 hours Glucose: 345.4 ± 19.7 mg/dL
  30 hours Glucose: 312.5 ± 21.7 mg/dL
  54 hours Glucose: 285.1 ± 14.7 mg/dL
  time points with significantly lowered plasma glucose: 54 h
C57BL/6J ob/ob mice; 125 mg/kg group
  Predose Glucose: 387.4 ± 18.8 mg/dL

## COC(=O)C1CCCN1C(=O)COC(=O)C(Oc1cccc(C(F)(F)F)c1)c1ccc(Cl)cc1 (single isomer, unassigned) [Compound 19.19]
[1]
  half-life: < 30 min

## O=C(NCCOC(=O)C(Oc1cccc(C(F)(F)F)c1)c1ccc(Cl)cc1)c1cccnc1 (single isomer, unassigned) [Compound 19.20]
[1]
  half-life: < 30 min

## O=C(NCCOC(=O)C(Oc1cccc(C(F)(F)F)c1)c1ccc(Cl)cc1)c1ccncc1 (single isomer, unassigned) [Compound 19.26]
[1]
  half-life: < 60 min

## CN(C)C(=O)COC(=O)C(Oc1cccc(C(F)(F)F)c1)c1ccc(Cl)cc1 (racemic) [(±)Analog 38]
C57BL/6J ob/ob mice; 125 mg/kg oral once a day
  6 hours Glucose: 303.2 ± 18.2 mg/dL
  30 hours Glucose: 245.6 ± 15.6 mg/dL
  54 hours Glucose: 243.1 ± 10.6 mg/dL
C57BL/6J ob/ob mice; 125 mg/kg group
  Predose Glucose: 329.4 ± 18.9 mg/dL

## CCOC(=O)C(Oc1cccc(C(F)(F)F)c1)c1ccc(Cl)cc1 (single isomer, unassigned) [Compound 19.7]
[1]
  half-life: < 420 min

## COCCOC(=O)C(Oc1cccc(C(F)(F)F)c1)c1ccc(Cl)cc1 (single isomer, unassigned; (-)) [Compound 19.8, (−)-2-methoxyethyl 4-chloro-alpha-(3-trifluoromethylphenoxy)benzeneacetate]
[1]
  half-life: < 120 min

## CC(=O)NCCOC(=O)C(Oc1cccc(C(F)(F)F)c1)c1ccc(F)cc1 (racemic) [(±)Analog 14]
C57BL/6J ob/ob mice; 125 mg/kg oral once a day
  6 hours Glucose: 328.9 ± 34.1 mg/dL
  30 hours Glucose: 267.0 ± 21.3 mg/dL
  54 hours Glucose: 293.0 ± 29.4 mg/dL
C57BL/6J ob/ob mice; 125 mg/kg group
  Predose Glucose: 361.0 ± 17.1 mg/dL

## O=C(OCC(=O)N1CCC1)C(Oc1cccc(C(F)(F)F)c1)c1ccc(Cl)cc1 (single isomer, unassigned) [Compound 19.13]
[1]
  half-life: < 30 min

## CCNC(=O)NCCOC(=O)C(Oc1cccc(C(F)(F)F)c1)c1ccc(Cl)cc1 (single isomer, unassigned) [Compound 19.22]
[1]
  half-life: < 60 min

## O=C(Oc1ccccc1)C(Oc1cccc(C(F)(F)F)c1)c1ccc(Cl)cc1 (single isomer, unassigned) [Compound 19.25]
[1]
  half-life: < 30 min

— patent US20040039053A1, “Use of(-) (3-halomethylphenoxy) (4-halophenyl) acetic acid derivatives for treatment of insulin resistance, type 2 diabetes, hyperlipidemia and hyperuricemia” (priority 2000, published 2004)
